The record followed here is patent US20230146507A1, “N-PHENYL-3-MERCAPTOPROPANAMIDE DERIVATIVES AS METALLO-BETA-LACTAMASE INHIBITORS FOR THE TREATMENT OF BACTERIAL INFECTIONS” (Helmholtz-Zentrum Für Infektionsforschung GmbH, priority 2020, published 2023).

SMILES strings stand for the structures. In brackets after ≈: the same amount, converted by molar mass.

One data set concerns E. coli NDM-1 (T2359). The data set can be described thus: Checkerboard assay with imipenem, E. coli NDM-1 (T2359). The data set is classed as cell-based. As for the experimental part: (§1) Fractional inhibitory concentration index (FICI). The checkerboard assay was performed to test for synergy in vitro. […] FICIs≤0.5 were defined as synergistic; FICIs from >0.5 to […] were defined as additive; FICIs from 1 to ≤4 were defined as indifferent and FICIs>4 were defined as antagonistic (Doern, C. D. When Does 2 plus 2 Equal 5? A Review of Antimicrobial Synergy Testing. J. Clin. Microbial. 2014, 52 (12), 4124-4128. https://doi.org/10.1128/JCM.01121-14).

The next data set concerns E. coli producing NDM-1. The data set can be described thus: MIC of imipenem in the presence of HIPS1686. The data set is classed as cell-based. The following applies: for MIC: Escherichia coli.
Another data set relates to E. cloacae GIM-1 (T2218). Briefly: MIC assay, clinical isolate. The data set is classed as cell-based.
In data set [1] the test system is S. marcescens NDM-1 (T2352). Briefly: MIC assay, clinical isolate. The data set is classed as cell-based.
Data set [2] concerns different isolates from E. coli and P. aeruginosa. Briefly: MIC assay, intrinsic antibacterial activity. The data set is classed as cell-based. Conditions: compound alone.
For data set [3], the system named is P. aeruginosa IMP-1 (T2325). The data set can be described thus: MIC assay, clinical isolate. The data set is classed as cell-based.
The target of the next data set is T1, VIM-1 (Pseudomonas aeruginosa, UniProt A0A0F7KYQ8).
T1 construct: made in house
Briefly: In vitro inhibition assay (kinetic fluorescence-based activity assay), VIM-1. The data set is classed as biochemical. The following applies: Means and SD of at least two independent experiments. The protocol: (§2) Protein expression and purification. The expression of IMP-7, VIM-1, and NDM-1 was performed according to the protocol previously published by Klingler et al. (Klingler, F. M.; Wichelhaus, T. A.; Frank, D.; Cuesta-Bernal, J.; El-Delik, J.; Müller, H. F.; Sjuts, H.; Gottig, S.; Koenigs, A.; Pos, K. M.; et al. Approved Drugs Containing Thiols as Inhibitors of Metallo-β-Lactamases: Strategy to Combat Multidrug-Resistant Bacteria. J. Med. Chem. 2015, 58 (8), 3626-3630. https://doi.org/10.1021/jm501844d) with slight modifications.
(§3) In vitro inhibition assay. Activity assays for NDM-1, VIM-1, VIM-2 and IMP-7 were carried out, as described by Klingler et al. Final protein concentrations were 0.5 nM (NDM-1), 4.0 nM (VIM-1), and 0.1 nM (IMP-7) in a 50 mM HEPES buffer (pH 7.5, 0.01% Triton X-100) Substrate (Fluorocillin™ (Invitrogen, Darmstadt, Germany) was dissolved in assay buffer to a final concentration of 888 nM. Test compounds were dissolved and pre-diluted in DMSO (final concentration: 1%). In a black polystyrol 96-well plate (Corning) an amount of […] of the respective inhibitor solution at different concentrations was incubated with […] of respective protein containing buffer for 30 minutes at room temperature. […] of substrate solution was added. The readout of the emitted fluorescence was started immediately (45 s for 30 cycles) using a Tecan Infinite F200Pro (Tecan Group Ltd; excitation at 495 nm and emission at 525 nm). Blank controls were performed without enzyme. Positive controls were performed with enzyme but without inhibitor. The inhibitory activity of each test compound was measured in three independent experiments. For calculation of IC50 values, data obtained from measurements with eight different inhibitor concentrations were used. For the evaluation of the sigmoidal dose response equation (variable slope with four parameters) GraphPad Prism 5 (GraphPad Software, La Jolla, Calif., USA) was used.

The subject of another data set is E. cloacae NDM-1 (T2311). The data set can be described thus: MIC assay, clinical isolate. The data set is classed as cell-based. The following applies: +HIPS1686 256 mg/L.
Another data set concerns E. coli NDM-5 (T2351). Briefly: MIC assay, clinical isolate. The data set is classed as cell-based. The following applies: +HIPS1686 256 mg/L.
The test system of a further data set is E. cloacae VIM-1 (T2353). The data set can be described thus: MIC assay, clinical isolate. The data set is classed as cell-based. The following applies: +HIPS1686 256 mg/L.
For data set [4], the system named is K. pneumoniae NDM-1 (T2301). Briefly: MIC assay, clinical isolate. Conditions: +HIPS1686 256 mg/L. The data set is classed as cell-based.
The next data set deals with T2, NDM-1 (Klebsiella pneumoniae, UniProt C7C422).
T2 construct: made in house
T2 sequence (C7C422 29-270, looked up, species assumed): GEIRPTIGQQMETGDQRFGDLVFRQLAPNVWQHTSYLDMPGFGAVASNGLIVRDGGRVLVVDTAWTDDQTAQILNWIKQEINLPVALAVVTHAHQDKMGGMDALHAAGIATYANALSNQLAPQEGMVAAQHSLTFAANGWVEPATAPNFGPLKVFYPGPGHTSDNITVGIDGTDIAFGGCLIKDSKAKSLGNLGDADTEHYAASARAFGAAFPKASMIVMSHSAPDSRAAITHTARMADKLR
The data set can be described thus: In vitro inhibition assay (kinetic fluorescence-based activity assay), NDM-1. The data set is classed as biochemical. Conditions: Means and SD of at least two independent experiments. The protocol: as §2, §3

The next data set has as its target IMP-7 (Pseudomonas aeruginosa, UniProt Q93AU3). The data set can be described thus: In vitro inhibition assay (kinetic fluorescence-based activity assay), IMP-7. The data set is classed as biochemical. The following applies: Means and SD of at least two independent experiments. As for the experimental part: as §2, §3
The test system of a further data set is E. coli VIM-1 (T2544). Briefly: Checkerboard assay with imipenem, E. coli VIM-1 (T2544). The data set is classed as cell-based. As for the experimental part: as §1
The test system of the next data set is E. coli NDM-7 (T2239). Briefly: MIC assay, clinical isolate. The data set is classed as cell-based. Conditions: Escherichia coli, read-out: MIC (mg/L) Imipenem.
The test system of the next data set is E. coli IMP-1 (T2360). Briefly: Checkerboard assay with imipenem, E. coli IMP-1 (T2360). The data set is classed as cell-based. The following applies: Escherichia coli, read-out: Imipenem MIC. As for the experimental part:
as §1

The nature of data set [5]: Cytotoxicity assay on HEK293 cells. The data set is classed as cell-based. The following applies: human. The protocol:
(§4) Cytotoxicity assays and Selectivity assays. Cytotoxicity assays on HepG2, HEK293 and A549 cells and selectivity assays on various MMPs were performed as described previously (Haupenthal, J.; Baehr, C.; Zeuzem, S.; Piiper, A. RNAse A-like Enzymes in Serum Inhibit the Anti-Neoplastic Activity of SiRNA Targeting Polo-like Kinase 1. Int. J. Cancer 2007, 121 (1), 206-210. https://doi.org/10.1002/ijc.22665).

The next data set concerns the target MMP-14 (Homo sapiens, UniProt P50281). Briefly: Selectivity assay on MMP-14. The data set is classed as biochemical. The following applies: read-out: % Inh. @ 100 μM MMP-14. The protocol:
as §4

A short description of data set [6]: Cytotoxicity assay on A549 cells. The data set is classed as cell-based. The following applies: human. The protocol: as §4
Data set [7] has as its system imipenem-resistant P. aeruginosa producing VIM-2. Briefly: Imipenem MIC with compound at single concentration. The data set is classed as cell-based. The following applies: compound at single concentration 1024 μg/mL.
In the next data set the target is MMP-7 (Homo sapiens, UniProt P09237). Briefly: Selectivity assay on MMP-7. The data set is classed as biochemical. Conditions: read-out: % Inh. @ 100 μM MMP-7. The protocol: as §4
Sequence of MMP-7 (P09237 95-267): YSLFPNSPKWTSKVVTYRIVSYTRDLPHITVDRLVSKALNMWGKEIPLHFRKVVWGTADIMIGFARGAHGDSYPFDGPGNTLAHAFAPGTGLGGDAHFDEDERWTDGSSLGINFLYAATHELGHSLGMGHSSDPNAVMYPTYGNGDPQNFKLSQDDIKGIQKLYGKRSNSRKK
Data set [8] can be described thus: Cytotoxicity assay on HepG2 cells. The data set is classed as cell-based. The following applies: human. As for the experimental part: as §4
The target in the next data set is MMP-1 (Homo sapiens, UniProt P03956). Briefly: Selectivity assay on MMP-1. The data set is classed as biochemical. Conditions: read-out: % Inh. @ 100 μM MMP-1. The protocol: as §4
Sequence of MMP-1 (P03956 100-469): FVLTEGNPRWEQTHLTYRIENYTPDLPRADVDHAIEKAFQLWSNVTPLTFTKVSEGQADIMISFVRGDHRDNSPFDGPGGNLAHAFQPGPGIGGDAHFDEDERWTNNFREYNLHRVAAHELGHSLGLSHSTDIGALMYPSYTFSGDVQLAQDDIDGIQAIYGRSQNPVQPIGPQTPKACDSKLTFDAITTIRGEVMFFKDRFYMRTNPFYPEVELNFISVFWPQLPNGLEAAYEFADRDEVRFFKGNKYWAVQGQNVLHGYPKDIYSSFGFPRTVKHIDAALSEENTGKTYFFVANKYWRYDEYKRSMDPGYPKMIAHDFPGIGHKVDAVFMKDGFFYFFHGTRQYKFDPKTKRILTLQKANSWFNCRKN
The target in a further data set is MMP-2 (Homo sapiens, UniProt P08253). The data set can be described thus: Selectivity assay on MMP-2. The data set is classed as biochemical. The following applies: read-out: % Inh. @ 100 μM MMP-2. As for the experimental part: as §4
Sequence of MMP-2 (P08253 110-660): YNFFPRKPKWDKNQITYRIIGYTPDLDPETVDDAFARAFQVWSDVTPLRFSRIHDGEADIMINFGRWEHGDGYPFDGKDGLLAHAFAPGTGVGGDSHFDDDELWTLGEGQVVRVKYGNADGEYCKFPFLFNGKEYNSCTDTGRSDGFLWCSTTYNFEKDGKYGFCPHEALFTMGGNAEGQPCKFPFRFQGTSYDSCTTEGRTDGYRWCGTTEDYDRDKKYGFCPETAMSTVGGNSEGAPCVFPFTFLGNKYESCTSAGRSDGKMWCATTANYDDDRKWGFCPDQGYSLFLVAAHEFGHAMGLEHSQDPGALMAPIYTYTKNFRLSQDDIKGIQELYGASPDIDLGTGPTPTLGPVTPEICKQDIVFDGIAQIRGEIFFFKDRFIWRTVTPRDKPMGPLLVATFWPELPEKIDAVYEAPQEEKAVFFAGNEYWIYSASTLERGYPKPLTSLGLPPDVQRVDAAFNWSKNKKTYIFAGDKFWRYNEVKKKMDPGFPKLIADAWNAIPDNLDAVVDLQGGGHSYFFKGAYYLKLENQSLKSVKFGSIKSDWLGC
Another data set deals with MMP-8 (Homo sapiens, UniProt P22894). The data set can be described thus: Selectivity assay on MMP-8. The data set is classed as biochemical. Conditions: read-out: % Inh. @ 100 μM MMP-8. As for the experimental part:
as §4

A further data set addresses MMP-3 (Homo sapiens, UniProt P08254). Briefly: Selectivity assay on MMP-3. The data set is classed as biochemical. Conditions: read-out: % Inh. @ 100 μM MMP-3. As for the experimental part:
as §4

Sequence of IMP-7 (Q93AU3 entry or part of it): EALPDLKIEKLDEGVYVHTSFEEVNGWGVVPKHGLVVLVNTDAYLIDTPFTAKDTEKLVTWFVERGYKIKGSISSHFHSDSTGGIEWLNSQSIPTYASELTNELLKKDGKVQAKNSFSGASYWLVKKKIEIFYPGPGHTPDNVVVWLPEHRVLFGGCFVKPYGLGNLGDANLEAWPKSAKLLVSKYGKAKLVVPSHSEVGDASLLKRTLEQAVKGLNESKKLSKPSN
Sequence of MMP-3 (P08254 100-477): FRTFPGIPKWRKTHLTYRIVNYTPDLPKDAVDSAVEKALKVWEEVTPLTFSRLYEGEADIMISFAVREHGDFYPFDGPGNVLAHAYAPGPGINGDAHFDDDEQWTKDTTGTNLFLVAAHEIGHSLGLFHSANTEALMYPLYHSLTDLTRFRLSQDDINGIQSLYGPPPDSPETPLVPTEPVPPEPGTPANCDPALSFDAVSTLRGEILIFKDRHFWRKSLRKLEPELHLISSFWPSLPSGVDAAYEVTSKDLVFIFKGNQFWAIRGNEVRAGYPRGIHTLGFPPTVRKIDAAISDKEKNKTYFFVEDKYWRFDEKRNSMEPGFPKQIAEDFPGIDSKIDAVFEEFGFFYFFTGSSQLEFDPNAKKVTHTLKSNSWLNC
Sequence of MMP-8 (P22894 101-467): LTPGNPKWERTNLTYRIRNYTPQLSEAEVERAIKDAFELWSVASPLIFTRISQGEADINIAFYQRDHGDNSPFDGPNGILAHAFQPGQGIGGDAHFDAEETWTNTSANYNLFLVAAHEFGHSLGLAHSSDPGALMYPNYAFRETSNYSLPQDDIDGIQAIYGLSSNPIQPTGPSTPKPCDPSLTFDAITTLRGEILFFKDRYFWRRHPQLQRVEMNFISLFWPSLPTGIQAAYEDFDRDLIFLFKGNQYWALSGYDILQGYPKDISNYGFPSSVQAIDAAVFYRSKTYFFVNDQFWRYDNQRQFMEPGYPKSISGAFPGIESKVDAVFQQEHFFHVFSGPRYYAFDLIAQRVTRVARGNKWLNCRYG

By IC50 is commonly meant the concentration that gives 50% inhibition. Regarding `O=C(CCS)Nc1ccccc1C(=O)O` [HIPS1686], the “Imipenem MIC” value in the data set with E. coli NDM-1 (T2359) (Table 4, +4 mg/L HIPS1686, median of three experiments) amounted to 64 µg/mL; in the data set with E. coli NDM-1 (T2359) (Table 4, +8 mg/L HIPS1686, median of three experiments), 64 µg/mL; in the data set on E. coli NDM-1 (T2359) (Table 4, +16 mg/L HIPS1686, median of three experiments), 64 µg/mL; in the data set with E. coli NDM-1 (T2359) (Table 4, +32 mg/L HIPS1686, median of three experiments), 16 µg/mL; in the data set with E. coli NDM-1 (T2359) (Table 4, +64 mg/L HIPS1686, median of three experiments) it was 8 µg/mL; with E. coli NDM-1 (T2359) (Table 4, +128 mg/L HIPS1686, median of three experiments), 2 µg/mL. The “Imipenem MIC” value in the data set on E. coli NDM-1 (T2359) (Table 4, +256 mg/L HIPS1686, median of three experiments) amounted to 2 µg/mL. Besides, the MIC in the data set with E. coli producing NDM-1 is above 1020 µg/mL. Besides, the “MIC of imipenem in the presence of HIPS1686” value in the data set on E. coli producing NDM-1 (HIPS1686 constant 64 μg/ml) was 4 µg/mL; in the data set on E. coli producing NDM-1 (HIPS1686 constant 256 μg/ml), 1 µg/mL; in the data set with E. coli producing NDM-1 (HIPS1686 constant 1024 μg/ml), 1 µg/mL. For the same molecule, the “MIC (mg/L) Imipenem (+HIPS1686 256 mg/L)” value against E. cloacae GIM-1 (T2218) (+HIPS1686 256 mg/L, E. cloacae GIM-1 (T2218)) turned out to be 0.5 mg/L (≈ 2.22 µM); in [1] (+HIPS1686 256 mg/L, S. marcescens NDM-1 (T2352)), 4 mg/L (≈ 17.8 µM); in data set [3] (+HIPS1686 256 mg/L, P. aeruginosa IMP-1 (T2325)), 32 mg/L (≈ 142 µM); in the data set on E. cloacae NDM-1 (T2311), 1 mg/L (≈ 4.44 µM); with E. coli NDM-5 (T2351), 2 mg/L (≈ 8.88 µM); with E. cloacae VIM-1 (T2353) it was 4 mg/L (≈ 17.8 µM). The “MIC (mg/L) Imipenem (+HIPS1686 256 mg/L)” value in data set [4] is reported as 1 mg/L (≈ 4.44 µM). The “intrinsic antibacterial activity (MIC)” value in data set [2] is given as “no intrinsic antibacterial activity”. Also, the IC50 at VIM-1 is 2.2 ± 0.2 µM; on NDM-1 it was 3.4 ± 0.1 µM; against IMP-7, 4.1 ± 0.3 µM.
Consider `C[C@@H](O)[C@H]1C(=O)N2C(C(=O)O)=C(SCCN=CN)C[C@H]12` [Imipenem, reference compound], for which the MIC in the data set with E. coli NDM-1 (T2359) (Escherichia coli, read-out: Imipenem MIC) came to 128 µg/mL; with E. coli producing NDM-1, 128 µg/mL; in the data set on E. cloacae GIM-1 (T2218) (Enterobacter cloacae, read-out: MIC (mg/L) Imipenem), 2 mg/L (≈ 6.68 µM); in data set [1] (Serratia marcescens, read-out: MIC (mg/L) Imipenem), 256 mg/L (≈ 855 µM); in the data set on E. coli VIM-1 (T2544) (Escherichia coli, read-out: Imipenem MIC, without compound) it was 32 µg/mL; in the data set with E. coli NDM-7 (T2239), 32 mg/L (≈ 107 µM). The MIC in [3] (Pseudomonas aeruginosa, read-out: MIC (mg/L) Imipenem) was 64 mg/L (≈ 214 µM); in the data set with E. coli IMP-1 (T2360), 2 µg/mL. Also, the “Imipenem MIC” value is 128 µg/mL in the data set on E. coli NDM-1 (T2359) (Table 6, without compound) and 64 µg/mL in the data set with E. coli VIM-1 (T2544) (without compound).
With `O=C(CCS)Nc1ccc(Cl)c(Cl)c1` [HIPS1447, N-(3,4-Dichlorophenyl)-3-mercaptopropanamide], the IC50 is above 100 µM in [5]; above 100 µM in data set [6]; above 100 µM in [8]; 0.1 µM against VIM-1; 1.3 µM on NDM-1; 5 ± 0.6 µM on IMP-7. Also, the inhibition at 100 µM on MMP-14 was 17.9 ± 7.8%; at MMP-7, below 10%; at MMP-1 it was below 10%; at MMP-2, 15.8 ± 13.5%; on MMP-8, 38.2 ± 24.8%; on MMP-3, below 10%. Moreover, in data set [2], the “intrinsic antibacterial activity (MIC)” value is listed as “no intrinsic antibacterial activity”. Moreover, the “fold decrease of imipenem MIC value” in data set [7] worked out at 64 fold.
